Measured values from paper PMC6685951, “Migration of Bacteriocins Across Gastrointestinal Epithelial and Vascular Endothelial Cells, as Determined Using In Vitro Simulations” (Scientific Reports, 2019).
Bridges are numbered along the chain shown (N, C = ends). Where no end group is shown, it is not given here.

Assays:
L. monocytogenes EGDe [1] = type: cell-based, Listeria monocytogenes; conditions: EGDe, 18 h
Description: The BCA assay was used according to the manufactures instructions to determine the concentration of the peptides. The MIC of the peptides was determined using a microtiter plate. Briefly, L. monocytogenes EGDe was inoculated into Listeria enrichment broth (LEB) and incubated overnight at 37 °C. The culture was inoculated into fresh LEB and incubated until an OD600 of 0.1 was reached. A series of peptide concentrations was prepared and 50 µL of each added per well, followed by the addition of 150 µL culture. The controls were ddH2O containing 0.1% (v/v) TFA with 150 µL culture or media. Microtiter plates were incubated at 37 °C and OD600 readings were taken at T0, T5 and T18 (hours). The MIC was determined as the lowest peptide concentration required to inhibit the growth of L. monocytogenes EGDe after 18 h.

L. monocytogenes EGDe [2] = experiment: Antimicrobial activity of NHS-fluorescein labelled versus unlabelled peptides (zone sizes); type: cell-based, Listeria monocytogenes; conditions: 50 µM, 20 µL spotted on LEB agar seeded with L. monocytogenes EGDe, overnight 37 °C
Description: HPLC purified stock solutions of nisin A, plantaricin 423 and bacST4SA were prepared by dissolving the peptides in sterile ultrapure water. Immediately before conjugating NHS-fluorescein to the peptides, a stock solution of NHS-fluorescein was prepared by dissolving 1 mg of reagent in 100 µL DMF. The amount of NHS-fluorescein to be added to each peptide was calculated using the Eqs (2) and (3):2 mLpeptide×mgpeptide/mLpeptide×mmolpeptide/mgpeptide×15mmolNHS/mmolpeptide=mmolNHS 3 mmolNHS×473.4(MWofNHS)/mmolNHS×100µLDMF/1mg=µLNHS
The calculated concentration of NHS-fluorescein was added to the peptides and incubated on ice for 2 h. Non-reacted NHS-fluorescein was removed by Sep-Pak C18 column chromatography. Plantaricin 423 and bacST4SA were eluted with 60% acetonitrile containing 0.1% TFA and nisin A with 40% acetonitrile containing 0.1% TFA. Peptides were freeze dried and resuspended in sterile ultrapure water. Concentrations of the labelled peptides were determined with the BCA assay and diluted to 50 µM. Labelled peptides were filtered through a 0.45 µm HVLP membrane and spotted (20 µL) onto LEB agar seeded with 1% L. monocytogenes EGDe (OD600 0.1). Plates were incubated overnight at 37 °C and the fluorescent peptides visualised under a UVP 3UV Ultraviolet Lamp. Inhibition zones were measured using ImageJ software and compared to those of non-labelled peptides.

[3] = in vivo, po; cited from earlier work

KYYGNGVSCNKKGCSVDWGKAIGIIGNNSAANLATGGAAGWKS (disulfide 9-14) [bacST4SA]
MIC (L. monocytogenes EGDe [1]): 10 µM | decrease in activity of labelled versus unlabelled peptide (antimicrobial zone sizes) (L. monocytogenes EGDe [2]): 21%

CC1(C)S[C@@H]2[C@H](NC(=O)COc3ccccc3)C(=O)N2[C@H]1C(=O)O [penicillin V]
bioavailability [3]: 60-70%

CC1(C)S[C@@H]2[C@H](NC(=O)[C@H](N)c3ccc(O)cc3)C(=O)N2[C@H]1C(=O)O [Amoxicillin]
bioavailability [3]: 74-92%

O=C(N[C@H](CO)[C@H](O)c1ccc([N+](=O)[O-])cc1)C(Cl)Cl [Chloramphenicol]
time to peak blood levels [3]: ≤ 2 h
